The results in this text go back to patent US20050037478A1, “Crystal structure of glutamate racemase (MurI)” (priority 2002, published 2005).

The target in series [1] is recombinant H. pylori MurI (Helicobacter pylori, UniProt Q9ZLT0).
Text: Kinetic constant for recombinant MurI were estimated by assaying its activity at various concentrations of protein and D-glutamic acid as described above.
The target in series [2] is T1, H. pylori MurI A75T mutant (Helicobacter pylori, UniProt Q9ZLT0, A75T).
T1 sequence (Q9ZLT0 1-255 A75T): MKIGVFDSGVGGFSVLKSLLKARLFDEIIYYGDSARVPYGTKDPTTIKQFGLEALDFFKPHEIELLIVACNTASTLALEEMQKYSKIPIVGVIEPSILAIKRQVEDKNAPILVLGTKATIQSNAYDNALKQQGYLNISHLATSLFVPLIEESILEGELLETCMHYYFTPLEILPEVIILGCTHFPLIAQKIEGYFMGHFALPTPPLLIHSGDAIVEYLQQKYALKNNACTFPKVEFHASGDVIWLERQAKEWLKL
To be noted: reverse direction.

Series [3] concerns MurI resistance mutant proteins (A75T or E151K). The series can be described thus: Kinetic analysis of MurI resistance mutant proteins, forward direction (L-Glu→D-Glu). Format: biochemical, H. pylori.
Experimental: In this assay, the conversion of L-Glutamate to D-Glutamate was monitored spectrophotometrically through a two enzyme coupling system wherein, the production of D-glutamate is coupled to the incorporation of D-Glutamate into UDP-MurNAc-Ala-D-Glu by recombinant E. faecalis MurD, with concomitant hydrolysis of ATP to ADP and inorganic phosphate. […] Initial rates of reaction were determined by following the increase of absorbance at 360 nm in a 100 μL reaction volume containing 85 μL of reaction buffer (58 mM Tris, pH=8.0, 23.5 mM ammonium acetate, 23.5 mM magnesium acetate, 2.94 mM dithiothreitol, 2.94 mM adenosine triphosphate, 0.47 mM UDP-MurNAc-Ala, 0.47 mM MESG, 1.17 units./mL PNP, 16 μg/mL E. faecalis MurD, and 30 nM MurI) and 15 μL of L-Glutamate stock (0.05-10 mM). The increase in optical density at 360 nm was measured continuously in at 96 well microtitre plate in a Microplate Spectrophotometer System (Molecular Devices, SpectraMAX 250).
Series [4] deals with the molecule itself. In words: X-ray crystallography, homodimer.
Series [5] concerns the molecule itself. In words: X-ray crystallography (molecular replacement), homodimer.

Bounds are passed on as bounds.

For orientation: Km means the concentration of substrate that gives half-maximal velocity. On to `N[C@H](CCC(=O)O)C(=O)O` [D-glutamate], for which, in series [1], the substrate inhibition entry was “Severe substrate inhibition”. Besides, the Michaelis constant (Km) in series [1] (read-out: Km for D-glutamate) was found to be 100 µM. In addition, the “shift of inhibition constant relative to the wild-type enzyme” value in series [2] (mutant enzyme vs wild-type) is recorded as more than 120 fold. Besides, the “substrate inhibition by D-glutamate” value in series [2] (mutant enzyme) is reported as “exhibits substrate inhibition”.
As for `N[C@@H](CCC(=O)O)C(=O)O` [L-Glu, L-glutamate], in series [3], the “elevation of KM for L-Glu relative to the native enzyme” value was 10 fold and the “substrate inhibition by L-Glu” value is “no substrate inhibition”.

B1: Enterococcus faecalis glutamate racemase (MurI), monomer chain of the homodimer (enzyme)
chain: MSNQEAIGLIDSGVGGLTVLKEALKQLPNERLIYLGDTARCPYGPRPAEQVVQFTWEMADFLLKKRIKMLVIACNTATAVALEEIKAALPIPVVGVILPGARAAVKVTKNNKIGVIGTLGTIKSASYEIAIKSKAPAIEVTSLACPKFVPIVESNQYRSSVAKKIVAETLQALQLKGLDTLILGCTHYPLLRPVIQNVMGSHVTLIDSGAETVGEVSMLLDYFDIAHTPEAPTQPHEFYTTGSAKMFEEIASSWLGIENLKAQQIHLGGNEND
notes: also called E. faecalis MurI; E. faecalis glutamate racemase
Regarding B1, the binding result in series [4] was “binds”.

B2: Enterococcus faecium glutamate racemase (MurI), monomer chain of the homodimer (enzyme)
chain: MIRLTDNRPIGFIDSGVGGLTVVKEALKQLPNENILFVGDTARCPYGPRPAEQVIQYTWEMTDYLVEQGIKMLVIACNTATAVALEEIKAALSIPVIGVILPGTRAAVKKTQNKQVGIIGTIGTVKSQAYEKALKEKVPELTVTSLACPKFVSVVESNEYHSSVAKKIVAETLAPLTTKKIDTLILGCTHYPLLRPIIQNVMGENVQLIDSGAETVGEVSMLLDYFNLSNSPQNGRTLCQFYTTGSAKLFEEIAEDWLGIGHLNVEHIELGGK
notes: also called E. faecium MurI; EF2
Consider B2, for which the binding result in series [5] is recorded as “binds”.

B3: Helicobacter pylori glutamate racemase (MurI), monomer chain of the homodimer (enzyme)
chain: MKIGVFDSGVGGFSVLKSLLKARLFDEIIYYGDSARVPYGTKDPTTIKQFGLEALDFFKPHEIELLIVACNTASALALEEMQKYSKIPIVGVIEPSILAIKRQVEDKNAPILVLGTKATIQSNAYDNALKQQGYLNISHLATSLFVPLIEESILEGELLETCMHYYFTPLEILPEVIILGCTHFPLIAQKIEGYFMGHFALPTPPLLIHSGDAIVEYLQQKYALKNNACTFPKVEFHASGDVIWLERQAKEWLKL
notes: also called H. pylori MurI; H. pylori glutamate racemase
For the molecule B3, in series [4], the binding result is listed as “binds”.
